# Reference: US20070264191A1, “Materials and Methods Relating to the Treatment of Glioblastomas” (priority 2004, published 2007)
# Peptide text beside a SMILES is read from it.
# Experiments:
# SF767 glioma cells = test: Transfection with peptide/pNGVL-Luc complexes, luciferase activity, SF767; format: cell-based, human
# Description: The formation and transfection of peptide/DNA complexes were carried out according to Patel et al. with slight modifications. […] […] […] The peptide was added dropwise to the DNA solution while vortexing gently (Stuart Scientific, UK). This mixture was allowed to incubate at room temperature (RT) for 30 min. After 30 min, the mixture was diluted to 4 μg/ml DNA with DMEM in the presence of 100 μM of chloroquine, and added to cells.
# The human tumor cell lines, dGli36, SF767, U251, A549, HeLa, HepG2, and CNE2 were cultured in DMEM supplemented with 10% fetal bovine serum (FBS) (Hyclone Laboratories, Logan, Utah). For transfection, 3×10^5 cells were seeded into each well of a six-well plate (Nunc, Roskilde, Denmark). After culturing the cells overnight, the cells were washed twice with PBS. Freshly prepared peptide/DNA complexes were added into each well and incubated for 2 h at 37° C. For transfection performed in the presence of serum, FBS was added to a final concentration of 10% directly after addition of peptide/DNA complexes to each well. The reporter gene activity was assayed after 24 h or 48 h.
# Cells were harvested from 6-well plates 24 h or 48 h following transfection, washed, resuspended in 120 μl of Tris-HCl (pH 7.8), and freeze-thawed three times. Cell debris was discarded following centrifugation at 14,000 g at 4° C. for 10 min. One hundred μl of the supernatant collected was used for assaying luciferase activity using the Auto-Lumat LB952 luminometer (EG&G Berthold, Bad Wildbad, Germany). Five microliter of the supernatant collected was used for the determination of protein concentration using the Bio-Rad protein assay dye reagent (Bio-Rad Laboratories, Hercules, USA) with the Ultrospec 3000 UV/visible spectrophotometer (Amersham Biosciences AB, Uppsala, Sweden).
# other glioma cells = conditions: Spear et al., 2001; cited from earlier work
# U87MG glioma cell line = conditions: Spear et al., 2001; cited from earlier work
# [1] = test system: SF767, U251MG, and M059K human glioma cell lines; test: In vitro fluorescent peptide binding assay, glioma cell lines; conditions: lissamine-rhodamine conjugated peptide, 100 ng, 20 min, 37° C., FIG. 4
# Description: (§1) For in vitro binding assay, 1×10^5 cells were seeded into each well of a 24-well dish (Nunc, Roskilde, Denmark). After culturing the cells overnight at 37° C., the cells were washed once with PBS, followed by incubating in blocking buffer containing PBS with 1% BSA at room temperature for 1 h. The cells were washed twice with PBS. One hundred nanogram of lissamine-rhodamine conjugated peptide (Mimotopes, Victoria, Australia) were added to the blocking buffer containing 0.1% sodium azide, and incubated with the cells at 37° C. for 20 min. This is followed by 5 washes of PBS with 0.1% Tween-20 at RT for 5 min intervals. The cells were then fix in 4% paraformaldehyde, followed by counterstaining using FITC-phalloidin (Sigma-Aldrich Corp., St. Louis, Mo.) and mounted. Images were captured digitally and analyzed using LSM 510 confocal microscope (Carl Zeiss Microscopy, Gottingen, Germany) with appropriate filters.
# (§2) To determine the direct specific binding of the (K16)-MG11 peptide to cell surface of glioma cells, (K16)-MG11 peptide was conjugated to lissamine rhodamine. After incubating the conjugated (K16)-MG11 to the various tumor cell lines, SF767, U251MG, M059K, A549, HepG2, and HK1, for 20 minutes at 37° C., the cells were examined under confocal microscopy and the level of fluorescence detected were compared between glioma and non-glioma cells. […]
# SF767 glioma xenograft = test: In vivo fluorescent peptide binding assay, intratumoral injection; conditions: SCID mice, 100 μg lissamine-rhodamine conjugated peptide intratumorally, 20 min, FIG. 6
# Description: SF767-tumor bearing mice were randomized into 2 groups (2 per group). Fifty microliter of 100 μg of lissamine rhodamine conjugated (K16)-MG11 or (K16)-H42 was injected intratumorally into 2 mice harboring the tumor, and allowed to circulate for 20 min. After 20 min, the mice were anethesized and perfused through the heart with PBS followed by 4% paraformaldehyde. The tumor were dissected and prepared for cryostat sections. The sections were then counterstained in FITC-phalloidin and mounted. Images were examined using LSM 510 meta confocal microscope (Carl Zeiss Microscopy, Göttingen, Germany) with appropriate filters.
# After 20 min of circulation, the mouse bearing the SF767 glioma xenograft was perfused and tumor was harvested. The tumor sections were counterstained with FITC-labeled phalloidin, which stains F-actin, to determine the cell surface.
# [2] = test system: non-glioma cell lines (A549, HepG2, HK1); test: In vitro fluorescent peptide binding assay, non-glioma cell lines; design: species or system human; conditions: lissamine-rhodamine conjugated peptide, 100 ng, 20 min, 37° C., FIG. 4
# Description: as §1, §2
compound,measurement,setting,value
"CC[C@H](C)[C@H](NC(=O)[C@H](CO)NC(=O)[C@H](CCCCN)NC(=O)[C@H](CCCCN)NC(=O)[C@H](CCCCN)NC(=O)[C@H](CCCCN)NC(=O)[C@H](CCCCN)NC(=O)[C@H](CCCCN)NC(=O)[C@H](CCCCN)NC(=O)[C@H](CCCCN)NC(=O)[C@H](CCCCN)NC(=O)[C@H](CCCCN)NC(=O)[C@H](CCCCN)NC(=O)[C@H](CCCCN)NC(=O)[C@H](CCCCN)NC(=O)[C@H](CCCCN)NC(=O)[C@H](CCCCN)NC(=O)[C@@H](N)CCCCN)C(=O)N1CCC[C@H]1C(=O)N[C@H](C(=O)N[C@@H](CCCCN)C(=O)N[C@@H](Cc1ccccc1)C(=O)N[C@@H](CC(N)=O)C(=O)N[C@@H](CCCCN)C(=O)N1CCC[C@H]1C(=O)N[C@@H](CC(C)C)C(=O)N[C@@H](Cc1c[nH]c2ccccc12)C(=O)N[C@@H](C)C(=O)N[C@H](C(=O)N[C@@H](Cc1ccccc1)C(=O)N1CCC[C@H]1C(=O)N1CCC[C@H]1C(=O)N[C@@H](CCCNC(=N)N)C(=O)N1CCC[C@H]1C(=O)N1CCC[C@H]1C(=O)N[C@@H](Cc1c[nH]c2ccccc12)C(=O)N[C@@H](CC(C)C)C(=O)O)[C@@H](C)O)C(C)C [(K16)-MG11, poly-L-lysine-SIPVKFNKP-MG11] (H-KKKKKKKKKKKKKKKKSIPVKFNKPLWATFPPRPPWL-OH)",toxicity to treated cells,SF767 glioma cells; peptide: DNA ratios of 10:1 and 20:1,toxicity could be detected
MCPKHPLGC,binding,other glioma cells,did not bind
same,binding specificity,U87MG glioma cell line,specific for U87MG glioma cell line
poly-L-lysine-SIPVKFNKP-H42 [(K16)-H42],luciferase expression,"SF767 glioma cells; complex with pNGVL-Luc, chloroquine, 48 h post transfection, FIG. 3C",8444 RLU/μg
same,luciferase expression at various peptide to DNA ratios,"SF767 glioma cells; ratios 1:2, 2:1, 10:1, 20:1, 24 h post-transfection, FIG. 3A",no significant binding could be detected
same,cell surface fluorescence (confocal microscopy),[1],non-specific red fluorescence was observed in all cell lines
same,red fluorescence in tumor cryostat sections,SF767 glioma xenograft,red fluorescent was not detected
same,cell surface fluorescence (confocal microscopy),[2],non-specific red fluorescence was observed in all cell lines
